Measured values taken from patent US20120058894A1, “SYNERGISTIC COMBINATIONS WHICH ARE COMPATIBLE WITH CULTIVATED PLANTS AND WHICH COMPRISE HERBICIDES SELECTED FROM THE GROUP CONSISTING OF BENZOYLCYCLOHEXANEDIONES FOR USE IN RICE CROPS” (Bayer CropScience AG, priority 2007, published 2012).

Experiments:
Type in all cases: in vivo
[1] = tested on: ORYZA (Oryza sativa); experiment: Post-emergence greenhouse test, damage to cultivated plant rice; details: for Damage ORYZA: dosage 300 g a.i./ha
Method: (§1) Seeds or root pieces of harmful mono- and dicotyledonous plants are placed in sandy clay soil in pots, covered with earth and secured in a greenhouse under good growing conditions (temperature, air humidity, water supply). Approximately three weeks after sowing, the plants are treated at the 2- to 3-leaf stage with the herbicidal active substances or the combinations according to the invention. The combinations according to the invention formulated as wettable powders or as emulsion concentrates are sprayed, in spray application, on to the green plant parts in different dosages with a water application rate of 600 to 800 I/ha (corrected). Immediately up to a few days after application, the test receptacles accumulate water over the ground surface by up to 30 mm. With the water application (submerged application), on the other hand, the ground in the closed test receptacle is already covered with the paddy water up to 30 mm at the time of the application. The formulated active substances are here added directly to the paddy water. After an exposure time of the test plants in the greenhouse of an additional 3 to 4 weeks under optimum growing conditions, the effect of the preparations is evaluated visually in comparison with untreated controls. […] In this connection, actions of the combinations according to the invention which exceed the formal sum of the actions of the herbicides when applied individually are frequently observed. The values observed for the tests show, with suitable low dosages, an action of the combinations which lie above the expected values according to Colby.
(§2) When the combinations according to the invention are used, herbicidal actions on a harmful plant species which exceed the formal sum of the actions of the herbicides present when applied singly are frequently observed. Alternatively, it can in many cases be observed that a lower application rate for the herbicidal combination is needed in order to achieve, in comparison with the individual preparations, the same action with a harmful plant species. Such improvements in action or improvements in effectiveness or economies in application rate are a strong indication of a synergistic effect. If the observed activity values already exceed the formal sum of the values for the tests with individual applications, then they likewise exceed the expected value according to Colby, which is calculated according to the following formula and is likewise regarded as an indication of synergy (cf. S. R. Colby in Weeds, 15 (1967), pp. 20 to 22):
(§3) In this connection: • A, B=action of the component A or B in percent at a dosage of a or b grams ai/ha, • E=expected value in % at a dosage of a+b grams ai/ha.
(§4) The values observed for the test examples mentioned below are greater than (harmful plants) or lower than (cultivated plants) the expected values according to Colby.

[2] = tested on: ECHCG (Echinochloa crus galli); experiment: Post-emergence weed action, greenhouse pot test; details: Table 4, post-emergence, dosage 100 g a.i./ha
Method: as §1, §2, §3, §4

[3] = tested on: LEFCH (Leptochloa chinensis); experiment: Post-emergence weed action, greenhouse pot test
Method: as §1, §2, §3, §4

[4] = tested on: CYPES (Cyperus serotinus); experiment: Post-emergence weed action, greenhouse pot test; details: Table 4, post-emergence, dosage 100 g a.i./ha
Method: as §1, §2, §3, §4

[5] = tested on: SCPSS (Scirpus juncoides); experiment: Post-emergence weed action, greenhouse pot test
Method: as §1, §2, §3, §4

[6] = tested on: BRAPL (Brachiaria platyphylla); experiment: Post-emergence weed action, greenhouse pot test
Method: as §1, §2, §3, §4

[7] = Table 2, post-emergence, dosage 12.5 g a.i./ha
[8] = Table 5, post-emergence, dosage 12.5 g a.i./ha
[9] = Table 5, post-emergence, dosage 62.5 g a.i./ha
[10] = Table 3, post-emergence, dosage 6.25 g a.i./ha
[11] = Table 6, post-emergence, dosage 6.25 g a.i./ha

Question: `CCOC(=O)C1=NOC(c2ccccc2)(c2ccccc2)C1` [Compound C1, isoxadifen-ethyl] was tested. Which “Damage ORYZA” value ([1]; Table 11, post-emergence) did it give?
Answer: 0%

Question: And the “Damage ORYZA” value ([1]; Table 12, post-emergence)?
Answer: 0%

Question: And the “Wirkung gegen ECHCG” value [2]?
Answer: 0%

Question: And the “Wirkung gegen LEFCH” value ([3]; Table 4, post-emergence, dosage 100 g a.i./ha)?
Answer: 0%

Question: And the “Wirkung gegen CYPES” value [4]?
Answer: 0%

Question: `CC(C)(NC(=O)C(Br)C(C)(C)C)c1ccccc1` (stereo not shown) [Compound B7, bromobutide] was tested. Which “Action against SCPSS” value ([5]; Table 10, post-emergence, dosage 125 g a.i./ha) did it give?
Answer: 70%

Question: Which “Action/Damage ORYZA” value [1, 7] does the source give for `CS(=O)(=O)c1ccc(C(=O)C2C(=O)CCCC2=O)c(Cl)c1` [Compound B1, sulcotrione] here?
Answer: 5%

Question: What about the “Action/Damage ORYZA” value [1, 8] of the same compound?
Answer: 5%

Question: And the “Action/Damage BRAPL” value [6, 7]?
Answer: 0%

Question: And the “Action/Damage BRAPL” value [6, 8]?
Answer: 0%

Question: `CS(=O)(=O)c1ccc(C(=O)C2C(=O)CCCC2=O)c(Cl)c1COCC1CCCO1` (stereo not shown) [Compound A2, tefuryltrione] was tested. Which “Action/Damage ORYZA” value [1, 9] did it give?
Answer: 10%

Question: And the “Action against SCPSS” value ([5]; Table 7, post-emergence, dosage 37.5 g a.i./ha)?
Answer: 50%

Question: And the “Action/Damage BRAPL” value [6, 9]?
Answer: 25%

Question: For `Cc1ccc(S(=O)(=O)Oc2c(C(=O)c3ccc(Cl)cc3Cl)c(C)nn2C)cc1` [Compound B6, pyrazolynate], which “Action against SCPSS” value ([5]; Table 9, post-emergence, dosage 250 g a.i./ha) is on record?
Answer: 30%

Question: `CS(=O)(=O)c1ccc(C(=O)C2C(=O)CCCC2=O)c(Cl)c1COCC(F)(F)F` [Compound A1, tembotrione] was tested. Which “Action/Damage ORYZA” value ([1]; in vivo) did it give?
Answer: 10%

Question: What about the “Action against SCPSS” value ([5]; Table 7, post-emergence, dosage 12.5 g a.i./ha) of the same compound?
Answer: 40%

Question: And the “Action against SCPSS” value ([5]; Table 8, post-emergence, dosage 12.5 g a.i./ha)?
Answer: 40%

Question: And the “Action against SCPSS” value ([5]; Table 9, post-emergence, dosage 12.5 g a.i./ha)?
Answer: 40%

Question: And the “Action against SCPSS” value ([5]; Table 10, post-emergence, dosage 12.5 g a.i./ha)?
Answer: 40%

Question: What about the “Action/Damage BRAPL” value [6, 7] of the same compound?
Answer: 20%

Question: How did the “Action against SCPSS” value ([5]; Table 8, post-emergence, dosage 37.5 g a.i./ha) turn out when `CS(=O)(=O)c1ccc(C(=O)C2=C(Sc3ccccc3)C3CCC(C3)C2=O)c(Cl)c1` (stereo not shown) [Compound B5, benzobicyclon] was run?
Answer: 60%

Question: Which results are given for `CCCCOC(=O)[C@@H](C)Oc1ccc(Oc2ccc(C#N)cc2F)cc1` [Compound B3, cyhalofop-butyl]?
Answer: Action/Damage ORYZA [1, 10]: 0%; Action/Damage ORYZA [1, 11]: 0%; Action/Damage LEFCH [3, 11]: 0%; Action/Damage BRAPL [6, 10]: 0%
